Measurements as given in PMC8869097, “Benzothiazole Derivatives as Multifunctional Antioxidant Agents for Skin Damage: Structure–Activity Relationship of a Scaffold Bearing a Five-Membered Ring System” (Antioxidants, 2022).
Values after ≈ are worked out from the molar mass of the structure shown.

Tests used:
[1] = system: Trichophyton tonsurans; test: Antidermatophyte activity, plaque growth inhibition; format: cell-based, Trichophyton tonsurans CBS 483.76; details: 100 μg/mL, SDA, read-out: % Inhibition Growth T. tonsurans
Experimental: (§1) The dermatophytes used in this study were Epidermophyton floccosum var. floccosum (Netherlands) CBS 358.93 strain, Trichophyton tonsurans (Netherlands) CBS 483.76 strain, Trichophyton mentagrophytes (Netherlands) CBS 160.66 strain, Microsporum canis (Iran) CBS 131,110 strain, and Microsporum gypseum (Iran) CBS 130,948 strain. All dermatophytes were maintained at 4 °C as agar slants on SDA. Candida albicans (ATCC 10231) was maintained at 4 °C on SDA plate.
(§2) The in vitro antifungal activity against the five selected dermatophytes was evaluated, as previously described, using the plaque growth inhibition method. All compounds were evaluated at the final concentration of 100 µg/mL. The percentages of growth inhibition according to Equation (5) were calculated as the average of three different experiments. I = [(C − T)/C] × 100%,(5) where I is the percentage value of growth inhibition, C is the measure of the diameter of the control circular mycelial inoculum (mm) and T is the extended diameter of the treated mycelial inoculum (mm).
(§3) All synthesized benzothiazole derivatives were evaluated to evaluate their in vitro antifungal activity against the five pathogenic dermatophytes that cause the most common dermatomycoses: Microsporum gypseum, Microsporum canis, Trichophyton mentagrophytes, Trichophyton tonsurans and Epidermophyton floccosum. All compounds were tested at a concentration of 100 µg/mL in DMSO, to evaluate the ability to inhibit the growth of dermatophyte cultures in Sabouraud Dextrose Agar (SDA). Briefly, room temperature incubation was performed and dermatophyte inhibition assessed by measuring the colony diameter at each disc for 7 days. The results are shown in Table 3 and were determined as the average of three different experiments.

[2] = system: Trichophyton mentagrophytes; test: as above; format: cell-based, Trichophyton mentagrophytes CBS 160.66; details: 100 μg/mL, SDA, read-out: % Inhibition Growth T. mentagrophytes
Experimental: as §1, §2, §3

[3] = system: Mia-Paca2 cells; test: Antiproliferative activity; format: cell-based; details: Homo sapiens, MIA PaCa-2
Experimental: (§4) Human cervical carcinoma (HeLa) and human CD4+T-lymphoblast (CEM) cells were obtained from ATCC (Middlesex, UK). Human pancreatic carcinoma (Mia-Paca 2) cells were kindly provided by Prof. Anna Karlsson (Karolinska Institute, Stockholm, Sweden). All cell lines were grown in Dulbecco’s modified Eagle’s medium (DMEM; Gibco, Carlsbad, CA, USA), supplemented with 10% fetal bovine serum (FBS, Gibso), 0.01M Hepes (Gibco) and 1 mM sodium pyruvate (Gibco) in a humidified 5% CO2 incubator at 37 °C.
(§5) The cell suspensions of CEM, HeLa and Mia-Paca2 were treated with increasing concentrations of the selected compounds, following the protocol previously reported.
(§6) A stock solution of the compounds (20 mM in DMSO) was prepared and stored at −18 °C. Then, the compounds were diluted in the cell culture medium and tested starting with the 100 µM concentration as the upper limit. The application of equation (6) allowed to obtain the values of IC50. C1 − [50 − N1%/N2% − N1%] − (C1 − C2),(6) where C1 is the concentration of the compound which inhibits cell proliferation by more than 50%; C2 is the concentration of the compound which inhibits cell proliferation below 50%; N1% represents the number of cells (expressed as a percentage of control without compound) obtained in the presence of C1 and N2% represents the number of cells (as a percentage of control without compound) obtained in the presence of C2.
(§7) Finally, the compounds of this series of benzothiazole derivatives were tested to evaluate their antiproliferative activity in vitro against human T-cell leukemia cell line (CEM), human cervical carcinoma cells (HeLa), human pancreas cancer cells (Mia Paca-2) and human melanoma cells (SK-Mel 5). Non-cancerous HEK293T cells (Normal Kidney Epithelial Cells) were chosen as a control for cytotoxicity and/or selectivity. The results obtained have been summarized in Table 5 (data shown only for the active compounds) and are expressed as IC50 values in μM. The selectivity index (SI) was also reported, determined by comparing the values of IC50 (μM) obtained on healthy cells (HEK 293) with that obtained on tumor cells (CEM, HeLa, Mia-Paca-2 and SK- Mel 5) (Table 5).

[4] = system: HeLa cells; test: Antiproliferative activity; format: cell-based; details: Homo sapiens
Experimental: as §4, §5, §6, §7

[5] = system: CEM cells; test: Antiproliferative activity; format: cell-based; details: Homo sapiens, CCRF-CEM
Experimental: as §4, §5, §6, §7

[6] = system: Epidermophyton floccosum; test: Antidermatophyte activity, plaque growth inhibition; format: cell-based, Epidermophyton floccosum var. floccosum CBS 358.93; details: 100 μg/mL, SDA, read-out: % Inhibition Growth E. floccosum
Experimental: as §1, §2, §3

[7] = system: Microsporum gypseum; test: as above; format: cell-based, Microsporum gypseum CBS 130,948; details: Nannizzia gypsea; 100 μg/mL, SDA; read-out: % Inhibition Growth M. gypseum
Experimental: as §1, §2, §3

[8] = system: dermatophytes; test: Antidermatophyte activity, all tested dermatophytes together; format: cell-based; details: read-out: percentages of inhibition of growth, all five dermatophytes
Experimental: as §2, §3

[9] = system: Candida albicans (ATCC 10231); test: Anti-Candida albicans activity, broth microdilution MIC; format: cell-based; details: for MIC: Candida albicans, ATCC10231, 24 h of incubation; for activity against Candida albicans: after 24 h
Experimental: as §1
The suspension of Candida albicans consists of the dispersion of an aliquot in 5 mL of sterilized water. The compounds and fluconazole, used as a positive control, were solubilized in DMSO (12.80 mg/mL) as stock solutions. Minimum inhibitory concentration (MIC) was performed by the broth microdilution method according to the approved standard M27-A3, 2008 [NCCLS] of the Clinical and Laboratory Standards Institute/National Committee for Clinical Laboratory Standards (CLSI/NCCLS), as described previously.
Candida is a strain of fungi known to transmit infections to different parts of the human body, including the skin [43], which is why the synthesized compounds have also been tested against Candida Albicans (ATCC 10231). For each of them the minimum inhibitory concentration (MIC) was determined by the broth microdilution method using RPMI 1640 + MOPS as culture medium. […] Fluconazole was used as a positive control drug. […] Similarly to the results observed on dermatophytes, therefore, the unsubstituted compounds in position 6 of benzimidazole gave activity on yeasts, except for compound 8a.

[10] = system: dermatophytes; set-up: method as in PMID 32967192; details: cited from earlier work

| Structure (SMILES) | inhibition at 100 µg/mL [1] [%] | inhibition at 100 µg/mL [2] [%] | IC50 [3] [µM] | IC50 [4] [µM] | IC50 [5] [µM] | inhibition at 100 µg/mL [6] [%] | inhibition at 100 µg/mL [7] [%] | inhibition at 100 µg/mL [8] [%] | MIC [9] [mg/L] | activity against Candida albicans [9] | IC50 towards the tested dermatophytes [10] |
| --- | --- | --- | --- | --- | --- | --- | --- | --- | --- | --- | --- |
| c1coc(-c2nc3ccccc3s2)c1 [Compound 9a, 2-(Furan-2-Yl)benzothiazole] | 57.9 ± 0.76 | 54 ± 0.99 | > 100 | > 100 | 41 ± 5 | 68.85 ± 0.54 | 74.78 ± 0.59 | 50 to 75 | 32 (≈ 159 µM) | showed activity against Candida albicans after 24 h |  |
| c1c[nH]c(-c2nc3ccccc3[nH]2)c1 [Lead 10, reference compound] | 96.97 ± 0.62 | 96.3 ± 2.42 | 15 ± 9 | 37 | 14 ± 1 | 102 ± 4.92 | 99.1 ± 1.33 |  |  |  | lower than 2 µg/mL |
| c1c[nH]c(-c2nc3ccccc3s2)c1 [Compound 8a, 2-(1H-Pyrrol-2-Yl)benzothiazole] | 7.46 ± 0.05 | 10 ± 0.51 | 87 ± 18 | 65 ± 2 | > 100 | 26 ± 0.66 | 50 ± 1.34 |  |  |  |  |
| NS(=O)(=O)c1ccc2nc(-c3cccs3)sc2c1 [Compound 10c, 2-(Thiophen-2-Yl)benzothiazole-6-Sulfonamide] | 6.35 ± 0.02 | 10.92 ± 0.09 | 13 ± 3 | > 100 | > 100 | 10.7 ± 0.31 | 12.36 ± 0.05 |  |  |  |  |
| c1csc(-c2nc3ccccc3s2)c1 [Compound 10a, 2-(Thiophen-2-Yl)benzothiazole] | 64.5 ± 0.92 | 61.95 ± 0.44 | > 100 | > 100 | 45 ± 3 | 54.1 ± 0.75 | 70.4 ± 0.77 | 50 to 75 | 64 (≈ 294 µM) | showed activity against Candida albicans after 24 h |  |
